Each structure is given as a SMILES string.

The experiment concerns production of TNF by monocytes activated with bacterial lipopolysaccharide (LPS). Put plainly: Lipopolysaccharide-activated monocyte TNF production assay. In kind it is cell-based. The conditions noted are these: Homo sapiens, read-out: IC50 values in the monocyte assay (LPS induced TNF release). The method, then:
Lipopolysaccharide-Activated Monocyte TNF Production Assay
Test compounds were evaluated in vitro for the ability to inhibit the production of TNF by monocytes activated with bacterial lipopolysaccharide (LPS). Fresh residual source leukocytes (a byproduct of plateletpheresis) were obtained from a local blood bank, and peripheral blood mononuclear cells (PBMCs) were isolated by density gradient centrifugation on Ficol-Paque Plus (Pharmacia). PBMCs were suspended at 2×10^6/ml in DMEM supplemented to contain 2% FCS, 10 mM, 0.3 mg/ml […], 100 U/ml penicillin G and […] streptomycin sulfate (complete media). Cells were plated into Falcon flat bottom, 96 well culture plates (200 μl/well) and cultured overnight at 37° C. and 6% CO2. Non-adherent cells were removed by washing with 200 μl/well of fresh medium. Wells containing adherent cells (˜70% monocytes) were replenished with 100 μl of fresh medium.
Preparation of Test Compound Stock Solutions
Test compounds were dissolved in […]. Compound stock solutions were prepared to an initial concentration of […]. Stocks were diluted initially to 20-200 μM in complete media. Nine two-fold serial dilutions of each compound were then prepared in complete medium.
Treatment of Cells with Test Compounds and Activation of TNF Production with Lipopolysaccharide
One hundred microliters of each test compound dilution were added to microtiter wells containing adherent monocytes and 100 μl complete medium. Monocytes were cultured with test compounds for 60 min at which time 25 μl of complete medium containing 30 ng/ml lipopolysaccharide from E. coli K532 were added to each well. Cells were cultured an additional 4 hrs. Culture supernatants were then removed and TNF presence in the supernatants was quantified using an ELISA.
Flat bottom, 96 well Corning High Binding ELISA plates were coated overnight (4° C.) with 150 μL/well of 3 μg/ml murine anti-human TNF-α MAb (R&D Systems #MAB210). Wells were then blocked for 1 hr at room temperature with 200 μL/well of CaCl2-free ELISA buffer supplemented to contain 20 mg/ml BSA (standard ELISA buffer: […], 150 mM NaCl, 2 mM CaCl2, 0.15 mM thimerosal, pH 7.4). Plates were washed and replenished with 100 μl of test supernatants (diluted 1:3) or standards. Standards consisted of eleven 1.5-fold serial dilutions from a stock of 1 ng/ml recombinant human TNF (R&D Systems). Plates were incubated at room temperature for 1 hr on orbital shaker (300 rpm), washed and replenished with 100 μl/well of 0.5 ug/ml goat anti-human TNF-α (R&D systems #AB-210-NA) biotinylated at a 4:1 ratio. Plates were incubated for 40 min, washed and replenished with 100 μl/well of alkaline phosphatase-conjugated streptavidin (Jackson ImmunoResearch #016-050-084) at 0.02 ug/ml. Plates were incubated 30 min, washed and replenished with 200 μl/well of 1 mg/ml of p-nitrophenyl phosphate. After 30 min, plates were read at 405 nm on a Vmax plate reader.
Standard curve data were fit to a second order polynomial and unknown TNF-α concentrations determined from their OD by solving this equation for concentration. TNF concentrations were then plotted vs. test compound concentration using a second order polynomial. This equation was then used to calculate the concentration of test compounds causing a 50% reduction in TNF production.
Usually IC50 stands for the point on the concentration scale where inhibition reaches its midpoint. As to `Cc1ccc(C(=O)OCc2ccccc2)cc1-c1ccc2nc(N)ncc2c1` [Example 160, phenylmethyl 3-(2-amino-6-quinazolinyl)-4-methylbenzoate], the IC50 was not above 25 µM.

On to `CNc1ncc2cc(-c3ccc(F)c(C(=O)Nc4cc(C(F)(F)F)ccc4N(C)CCCN(C)C)c3)ccc2n1` [Example 9, N-(2-((3-(dimethylamino)propyl)(methyl)amino)-5-(trifluoromethyl)phenyl)-2-fluoro-5-(2-(methylamino)-6-quinazolinyl)benzamide], for which the IC50 was not above 25 µM.

Regarding `Cc1ccc(C(=O)Nc2cc(C(F)(F)F)ccc2C(F)(F)F)cc1-c1ccc2nc(N)ncc2c1` [Example 77, 3-(2-amino-6-quinazolinyl)-N-(2,5-bis(trifluoromethyl)phenyl)-4-methylbenzamide], the IC50 was not above 25 µM.

For the compound `Cc1ccc(C(=O)Nc2ccc(C#N)c(C(F)(F)F)c2)cc1-c1ccc2nc(N)ncc2c1` [Example 125, 3-(2-amino-6-quinazolinyl)-N-(4-cyano-3-(trifluoromethyl)phenyl)-4-methylbenzamide], the half-inhibitory concentration (IC50) is not above 25 µM.

On to `Cc1ccc(C(=O)Nc2c3c(nn2CCC#N)CCC3)cc1-c1ccc2nc(N)ncc2c1` [Example 304, 3-(2-amino-6-quinazolinyl)-N-(2-(2-cyanoethyl)-2,4,5,6-tetrahydrocyclopenta [c]pyrazol-3-yl)-4-methylbenzamide], for which the IC50 was not above 25 µM.

In the case of `Cc1ccc(C(=O)Nc2ncc(Br)s2)cc1-c1ccc2nc(N)ncc2c1` [Example 356, 3-(2-amino-6-quinazolinyl)-N-(5-bromo-1,3-thiazol-2-yl)-4-methylbenzamide], the IC50 was not above 25 µM.

`Cc1ccc(C(=O)Nc2ccc(NC(=O)NCCN3CCOCC3)c(C(F)(F)F)c2)cc1-c1ccc2nc(N)ncc2c1` [Example 4]: the IC50 was not above 25 µM.

With `Cc1ccc(NC(=O)c2cccc(C(C)C)c2)cc1-c1ccc2nc(N)ncc2c1` [Example 432, N-(3-(2-aminoquinazolin-6-yl)-4-methylphenyl)-3-isopropylbenzamide], the IC50 was not above 25 µM.

As to `CNc1ncc2cc(-c3cc(C(=O)Nc4cc(C(C)(C)C)ccc4NC(=O)CN4CCOCC4)ccc3C)cnc2n1` [Example 192], the IC50 was not above 25 µM.

For the compound `Nc1ncc2cc(-c3cc(C(=O)Nc4cc(C(F)(F)F)ccc4N4CCCC4)ccc3Cl)ccc2n1` [Example 155, 3-(2-amino-6-quinazolinyl)-4-chloro-N-(2-(1-pyrrolidinyl)-5-(trifluoromethyl)phenyl)benzamide], the IC50 was not above 25 µM.

With `Nc1ncc2cc(-c3cc(NC(=O)c4cccc(Cl)c4Cl)ccc3Cl)ccc2n1` [Example 482, N-(3-(2-amino-6-quinazolinyl)-4-chlorophenyl)-2,3-dichlorobenzamide], the IC50 was not above 25 µM.

Regarding `Cc1ccc(C(=O)Nc2cc(CN3CCN(C)CC3)cc(C(F)(F)F)c2)cc1-c1ccc2nc(N)ncc2c1` [Example 159, 3-(2-amino-6-quinazolinyl)-4-methyl-N-(3-((4-methyl-1-piperazinyl)methyl)-5-(trifluoromethyl)phenyl)benzamide], the IC50 was not above 25 µM.

As for `Cc1ccc(C(=O)Nc2ncc(Cl)cc2Cl)cc1-c1ccc2nc(N)ncc2c1` [Example 346, 3-(2-amino-6-quinazolinyl)-N-(3,5-dichloro-2-pyridinyl)-4-methylbenzamide], the IC50 was not above 25 µM.

Regarding `CN(C)CCCN(C)c1c(Cl)cc(C(F)(F)F)cc1NC(=O)c1cc(-c2ccc3nc(N)ncc3c2)ccc1F` [Example 59, 5-(2-amino-6-quinazolinyl)-N-(3-chloro-2-((3-(dimethylamino)propyl)(methyl)amino)-5-(trifluoromethyl)phenyl)-2-fluorobenzamide], the IC50 is not above 25 µM.

As for `CCN(CC)CCOc1ccc(OC)c(NC(=O)c2ccc(C)c(-c3ccc4nc(N)ncc4c3)c2)c1` [Example 71, 3-(2-amino-6-quinazolinyl)-N-(5-((2-(diethylamino)ethyl)oxy)-2-(methyloxy)phenyl)-4-methylbenzamide], the IC50 was not above 25 µM.

For the compound `Nc1ncc2cc(-c3cccc(C(=O)Nc4cccc(C(F)(F)F)c4)c3)ccc2n1` [Example 52, 3-(2-amino-6-quinazolinyl)-N-(3-(trifluoromethyl)phenyl)benzamide], the IC50 was not above 25 µM.

Take `Nc1ncc2cc(-c3ccc(F)c(NC(=O)C4CC4)c3)ccc2n1` [Example 486, N-(5-(2-amino-6-quinazolinyl)-2-fluorophenyl)cyclopropanecarboxamide]: the IC50 was not above 25 µM.

Consider `Cc1ccc(C(=O)Nc2nc(C)c(C)s2)cc1-c1ccc2nc(N)ncc2c1` [Example 225, 3-(2-amino-6-quinazolinyl)-N-(4,5-dimethyl-1,3-thiazol-2-yl)-4-methylbenzamide], for which the 50% inhibitory concentration (IC50) was not above 25 µM.

Consider `Cc1ccc(C(=O)Nc2cccc(C#N)c2)cc1-c1ccc2nc(N)ncc2c1` [Example 429, 3-(2-amino-6-quinazolinyl)-N-(3-cyanophenyl)-4-methylbenzamide], for which the IC50 is not above 25 µM.

Regarding `Cc1c(NC(=O)c2cc(C(F)(F)F)cc(C(F)(F)F)c2)cccc1-c1ccc2nc(N)ncc2c1` [Example 220, N-(3-(2-amino-6-quinazolinyl)-2-methylphenyl)-3,5-bis(trifluoromethyl)benzamide], the IC50 is not above 25 µM.

With `CN1CCC(c2cc(NC(=O)c3csc(-c4ccc5nc(N)ncc5c4)c3)cc(C(F)(F)F)c2)CC1` [Example 58, 5-(2-amino-6-quinazolinyl)-N-(3-(1-methyl-4-piperidinyl)-5-(trifluoromethyl)phenyl)-3-thiophenecarboxamide], the 50% inhibitory concentration (IC50) is not above 25 µM.

For `Cc1ccc(C(=O)Nc2cc(C(F)(F)F)ccc2OCCN2CCCC2)cc1-c1ccc2nc(N)ncc2c1` [Example 420, 3-(2-amino-6-quinazolinyl)-4-methyl-N-(2-((2-(1-pyrrolidinyl)ethyl)oxy)-5-(trifluoromethyl)phenyl)benzamide], the IC50 was not above 25 µM.

As for `CCN(CC)CC(=O)N1CC(C)(C)c2ccc(NC(=O)c3ccc(C)c(-c4ccc5nc(N)ncc5c4)c3)cc21` [Example 64, 3-(2-amino-6-quinazolinyl)-N-(1-(N,N-diethyiglycyl)-3,3-dimethyl-2,3-dihydro-1H-indol-6-yl)-4-methylbenzamide], the 50% inhibitory concentration (IC50) is not above 25 µM.

Turning to `Cc1ccc(C(=O)Nc2cccc(C(F)(F)F)c2F)cc1-c1ccc2nc(Nc3ccc(OCCCN4CCCCC4)cc3)ncc2c1` [Example 31, N-(2-fluoro-3-(trifluoromethyl)phenyl)-4-methyl-3-(2-((4-((3-(1-piperidinyl)propyl)oxy)phenyl)amino)-6-quinazotinyl) benzamide], the IC50 was not above 25 µM.

For the compound `Cc1ccc(C(=O)Nc2cccc(C(F)(F)F)n2)cc1-c1ccc2nc(N)ncc2c1` [Example 359, 3-(2-amino-6-quinazolinyl)-4-methyl-N-(6-(trifluoromethyl)-2-pyridinyl)benzamide], the half-inhibitory concentration (IC50) is not above 25 µM.

For `CNc1ncc2cc(-c3cccc(NC(=O)c4cc(F)cc(C(F)(F)F)c4)c3C)cnc2n1` [Example 219], the IC50 was not above 25 µM.

With `CNc1ncc2cc(-c3cc(NC(=O)c4cccc(Cl)c4Cl)ccc3C)cnc2n1` [Example 201, 2,3-dichloro-N-(4-methyl-3-(2-(methylamino)pyrido[2,3-d]pyrimidin-6-yl)phenyl)benzamide], the half-maximal inhibitory concentration (IC50) was not above 25 µM.

Take `CNc1ncc2cc(-c3cc(C(=O)Nc4cccc(C(F)(F)F)c4)c(F)cc3C)ccc2n1` [Example 38, 2-fluoro-4-methyl-5-(2-(methylamino)-6-quinazolinyl)-N-(3-(trifluoromethyl)phenyl)benzamide]: the IC50 is not above 25 µM.

As to `Cc1c(NC(=O)c2cccc(C(F)(F)F)c2)cccc1-c1ccc2nc(N)ncc2c1` [Example 197, N-(3-(2-amino-6-quinazolinyl)-2-methylphenyl)-3-(trifluoromethyl)benzamide], the IC50 was not above 25 µM.

As to `Cc1ccc(NC(=O)Nc2cccc(C(F)(F)F)c2)cc1-c1ccc2nc(N)ncc2c1` [Example 524, N-(3-(2-amino-6-quinazolinyl)-4-methylphenyl)-N′-(3-(trifluoromethyl)phenyl)urea], the half-inhibitory concentration (IC50) is not above 25 µM.
